Source: patent publication US20230080054A1 (ILDONG PHARMACEUTICAL CO., LTD., priority 2021, published 2023)

Molecular target: T1, human ANO6 (Homo sapiens, UniProt Q4KMQ2)
T1 construct: expressed in transfected cells
T1 sequence (Q4KMQ2 1-931 isoform Q4KMQ2-2): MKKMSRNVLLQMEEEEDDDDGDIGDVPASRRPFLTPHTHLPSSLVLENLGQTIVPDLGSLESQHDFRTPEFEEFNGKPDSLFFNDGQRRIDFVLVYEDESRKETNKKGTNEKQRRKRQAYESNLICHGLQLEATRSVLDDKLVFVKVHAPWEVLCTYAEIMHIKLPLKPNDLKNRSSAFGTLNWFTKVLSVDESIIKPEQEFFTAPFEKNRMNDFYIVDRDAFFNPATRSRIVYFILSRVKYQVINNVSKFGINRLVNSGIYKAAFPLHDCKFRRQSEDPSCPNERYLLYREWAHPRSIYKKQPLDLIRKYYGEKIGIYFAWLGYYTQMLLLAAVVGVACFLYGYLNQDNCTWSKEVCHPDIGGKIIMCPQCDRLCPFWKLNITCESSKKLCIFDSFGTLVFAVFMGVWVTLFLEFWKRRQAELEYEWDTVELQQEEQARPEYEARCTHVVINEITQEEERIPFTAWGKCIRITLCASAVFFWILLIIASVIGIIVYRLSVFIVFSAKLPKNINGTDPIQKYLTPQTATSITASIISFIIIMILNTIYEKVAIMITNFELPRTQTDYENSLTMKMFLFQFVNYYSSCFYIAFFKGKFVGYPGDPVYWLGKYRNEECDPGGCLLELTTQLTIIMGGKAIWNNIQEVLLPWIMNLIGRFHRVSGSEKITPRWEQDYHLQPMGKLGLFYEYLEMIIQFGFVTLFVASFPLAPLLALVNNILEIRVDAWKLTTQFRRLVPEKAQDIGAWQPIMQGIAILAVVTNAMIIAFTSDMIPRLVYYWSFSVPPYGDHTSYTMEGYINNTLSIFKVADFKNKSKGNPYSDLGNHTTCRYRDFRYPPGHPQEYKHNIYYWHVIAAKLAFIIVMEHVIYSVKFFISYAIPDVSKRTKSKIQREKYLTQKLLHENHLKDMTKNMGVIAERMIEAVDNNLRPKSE
Assay: LACT C2 assay (phosphatidylserine scramblase function assay)
Format: cell-based
Details: FRT cells expressing human ANO6, 10 μM ionomycin; for inhibition at 0.1 µM: test compound 100 nM, read-out: Inhibition Level 100 nM; for inhibition at 1 µM: test compound 1 μM, read-out: Inhibition Level 1 μM
Source text: Phosphatidylserine Scramblase Function Assay
1. Materials and Instruments
Ionomycin (Alomonelab, cat. #I-700), DAPI (Sigma-Aldrich, cat. #D8417), paraformaldehyde (Biosesang, cat. #P2031), Lionheart FX Automated Microscope (BioTek, Winooski), Python3 (Python Software Foundation), and OpenCV (Open Source Computer Vision Library).
Fisher rat thyroid (FRT) cells stably expressing human ANO6 (GenBank accession no. NP_001191732.1, provided by J. H. Nam, Dongguk University College of Medicine, Korea) were grown in DMEM/Ham's F-12 (1:1) medium with 10% FBS, 2 mM L-549 glutamine, 100 units/mL penicillin, and 100 μg/mL streptomycin at 37° C. and 5% CO2.
FRT cells stably expressing human ANO6 were plated in 96 well black-walled microplates at a density of 2×10^4 cells/well. After 24 hours incubation, cells were treated with the test compound (dissolved in DMSO) were treated to each well to become 1% v/v DMSO for 10 minutes, then 10 μM of ionomycin was applied. Finally each well was washed with 200 μL PBS after 10 minutes. After washout, the phosphatidylserine and nuclei were stained with PBS containing 500 nM Lactadherin-C2 (Lact-C2)-GFP, then cells were washed with 200 μL PBS. Cells were fixed with 4% paraformaldehyde for 5 minutes at room temperature. For morphological analysis, some cells were stained with fluorescently labelled DAPI for 15 minutes at room temperature. Quantitative analysis of the fluorescence intensity of Lact-C2-GFP was performed with Python3 and OpenCV. OpenCV was used to remove background and noise pixels, and the sum of all remaining pixel values was used to evaluate the fluorescence intensity of Lact-C2-GFP.
The inhibitory activity (%) of each of the test compounds was obtained by the following steps. In each row of 96 well plate, the inhibitory activity of each of the test compounds was calculated as percentages. The inhibitory activity of a negative control group to which neither compounds nor ionomycin were treated was set to be 100%, and the inhibitory activity of a positive control group to which ionomycin was treated and compounds were not treated was set to be 0%. The assay was performed in triplicate, and the results were averaged.

SMILES: O=C(NCc1ccccc1C(F)(F)F)c1cccc(Nc2ncc(-c3cccc(F)c3)cn2)c1 [Compound 204, 3-((5-(3-fluorophenyl)pyrimidin-2-yl)amino)-N-(2-(trifluoromethyl)benzyl)benzamide]
- inhibition at 0.1 µM: < 30%
- inhibition at 1 µM: 30 to 60%

SMILES: O=C(NCc1c(F)cc(F)cc1F)c1cccc(Nc2ncc(-c3cccc(F)c3)cn2)c1 [Compound 205, 3-((5-(3-fluorophenyl)pyrimidin-2-yl)amino)-N-(2,4,6-trifluorobenzyl)benzamide]
- inhibition at 0.1 µM: < 30%
- inhibition at 1 µM: 30 to 60%

SMILES: Cc1ccc(CNC(=O)c2cccc(Nc3ncc(-c4cccc(F)c4)cn3)c2)c(C)c1 [Compound 206, N-(2,4-dimethylbenzyl)-3-((5-(3-fluorophenyl)pyrimidin-2-yl)amino)benzamide]
- inhibition at 0.1 µM: < 30%
- inhibition at 1 µM: 30 to 60%

SMILES: O=C(NCc1ccc(Cl)cc1Cl)c1cccc(Nc2ncc(-c3cccc(F)c3)cn2)c1 [Compound 207, N-(2,4-dichlorobenzyl)-3-((5-(3-fluorophenyl)pyrimidin-2-yl)amino)benzamide]
- inhibition at 0.1 µM: < 30%
- inhibition at 1 µM: 30 to 60%

SMILES: O=C(NCc1ccc(C(F)(F)F)cc1C(F)(F)F)c1cccc(Nc2ncc(-c3cccc(F)c3)cn2)c1 [Compound 208, N-(2,4-bis(trifluoromethyl)benzyl)-3-((5-(3-fluorophenyl)pyrimidin-2-yl)amino)benzamide]
- inhibition at 0.1 µM: < 30%
- inhibition at 1 µM: 30 to 60%

SMILES: O=C(NCc1cc(F)c(F)cc1F)c1cccc(Nc2ncc(-c3cccc(F)c3)cn2)c1 [Compound 209, 3-((5-(3-fluorophenyl)pyrimidin-2-yl)amino)-N-(2,4,5-trifluorobenzyl)benzamide]
- inhibition at 0.1 µM: < 30%
- inhibition at 1 µM: < 30%

SMILES: Cc1cc(F)ccc1CNC(=O)c1cccc(Nc2ccc(-c3ccccc3)nn2)c1 [Compound 210, N-(4-fluoro-2-methylbenzyl)-3-((6-phenylpyridazin-3-yl)amino)benzamide]
- inhibition at 0.1 µM: < 30%
- inhibition at 1 µM: ≥ 60%

SMILES: O=C(NCc1ccc(F)c(Cl)c1)c1cccc(Nc2ccc(-c3ccccc3)nn2)c1 [Compound 211, N-(3-chloro-4-fluorobenzyl)-3-((6-phenylpyridazin-3-yl)amino)benzamide]
- inhibition at 0.1 µM: < 30%
- inhibition at 1 µM: ≥ 60%

SMILES: N#CC(NC(=O)c1cccc(Nc2ccc(-c3ccccc3)nn2)c1)c1ccc(F)cc1 (stereo not shown) [Compound 212, N-(cyano(4-fluorophenyl)methyl)-3-((6-phenylpyridazin-3-yl)amino)benzamide]
- inhibition at 0.1 µM: < 30%
- inhibition at 1 µM: < 30%

SMILES: CC(C)(NC(=O)c1cccc(Nc2ccc(-c3ccccc3)nn2)c1)c1ccc(F)cc1 [Compound 213, N-(2-(4-fluorophenyl)propan-2-yl)-3-((6-phenylpyridazin-3-yl)amino)benzamide]
- inhibition at 0.1 µM: < 30%
- inhibition at 1 µM: 30 to 60%

SMILES: COc1cc(F)ccc1CNC(=O)c1cccc(Nc2ccc(-c3ccccc3)nn2)c1 [Compound 214, N-(4-fluoro-2-methoxybenzyl)-3-((6-phenylpyridazin-3-yl)amino)benzamide]
- inhibition at 0.1 µM: < 30%
- inhibition at 1 µM: 30 to 60%

SMILES: O=C(NCc1ccc(F)cc1F)c1cccc(Nc2ncc(-c3cccc(F)c3)cn2)c1 [Compound 215, N-(2,4-difluorobenzyl)-3-((5-(3-fluorophenyl)pyrimidin-2-yl)amino)benzamide]
- inhibition at 0.1 µM: < 30%
- inhibition at 1 µM: < 30%

SMILES: O=C(NCc1ccccc1Br)c1cccc(Nc2ncc(-c3cccc(F)c3)cn2)c1 [Compound 216, N-(2-bromobenzyl)-3-((5-(3-fluorophenyl)pyrimidin-2-yl)amino)benzamide]
- inhibition at 0.1 µM: < 30%
- inhibition at 1 µM: < 30%

SMILES: O=C(NCc1ccc(F)c(F)c1F)c1cccc(Nc2ncc(-c3cccc(F)c3)cn2)c1 [Compound 217, 3-((5-(3-fluorophenyl)pyrimidin-2-yl)amino)-N-(2,3,4-trifluorobenzyl)benzamide]
- inhibition at 0.1 µM: < 30%
- inhibition at 1 µM: 30 to 60%

SMILES: N#CC1(NC(=O)c2cccc(Nc3ncc(-c4cccc(F)c4)cn3)c2)CC1 [Compound 218, N-(1-cyanocyclopropyl)-3-((5-(3-fluorophenyl)pyrimidin-2-yl)amino)benzamide]
- inhibition at 0.1 µM: < 30%
- inhibition at 1 µM: 30 to 60%

SMILES: O=C(NC1(CO)CC1)c1cccc(Nc2ncc(-c3cccc(F)c3)cn2)c1 [Compound 219, 3-((5-(3-fluorophenyl)pyrimidin-2-yl)amino)-N-(1-(hydroxymethyl)cyclopropyl)benzamide]
- inhibition at 0.1 µM: < 30%
- inhibition at 1 µM: < 30%

SMILES: CCN1CCN(c2cc(F)ccc2CNC(=O)c2cccc(Nc3ccc(-c4ccccc4)nn3)c2)CC1 [Compound 220, N-(2-(4-ethylpiperazin-1-yl)-4-fluorobenzyl)-3-((6-phenylpyridazin-3-yl)amino)benzamide]
- inhibition at 0.1 µM: 30 to 60%

SMILES: O=C(N[C@@H]1C[C@H]1c1ccc(Cl)c(F)c1)c1cccc(Nc2ccc(-c3ccccc3)nn2)c1 [Compound 221, N-((1R,2S)-2-(4-chloro-3-fluorophenyl)cyclopropyl)-3-((6-phenylpyridazin-3-yl)amino)benzamide]
- inhibition at 0.1 µM: 30 to 60%
- inhibition at 1 µM: ≥ 60%

SMILES: CN1CCN(c2cc(F)ccc2CNC(=O)c2cccc(Nc3ccc(-c4ccccc4)nn3)c2)CC1 [Compound 222, N-(4-fluoro-2-(4-methylpiperazin-1-yl)benzyl)-3-((6-phenylpyridazin-3-yl)amino)benzamide]
- inhibition at 0.1 µM: < 30%
- inhibition at 1 µM: 30 to 60%

SMILES: N#CC1(NC(=O)c2cccc(Nc3ccc(-c4cccc(F)c4)nn3)c2)CC1 [Compound 223, N-(1-cyanocyclopropyl)-3-((6-(3-fluorophenyl)pyridazin-3-yl)amino)benzamide]
- inhibition at 0.1 µM: < 30%
- inhibition at 1 µM: 30 to 60%

SMILES: O=C(NC1(CO)CC1)c1cccc(Nc2ccc(-c3cccc(F)c3)nn2)c1 [Compound 224, 3-((6-(3-fluorophenyl)pyridazin-3-yl)amino)-N-(1-(hydroxymethyl)cyclopropyl)benzamide]
- inhibition at 0.1 µM: < 30%
- inhibition at 1 µM: < 30%

SMILES: N#CC1(NC(=O)c2cccc(Nc3ccc(-c4ccccc4)nn3)c2)CC1 [Compound 225, N-(1-cyanocyclopropyl)-3-((6-phenylpyridazin-3-yl)amino)benzamide]
- inhibition at 0.1 µM: < 30%
- inhibition at 1 µM: 30 to 60%

SMILES: CCN1CCN(c2cc(CNC(=O)c3cccc(Nc4ccc(-c5ccccc5)nn4)c3)ccc2F)CC1 [Compound 226, N-(3-(4-ethylpiperazin-1-yl)-4-fluorobenzyl)-3-((6-phenylpyridazin-3-yl)amino)benzamide]
- inhibition at 0.1 µM: < 30%
- inhibition at 1 µM: < 30%

SMILES: CN1CCN(c2cc(CNC(=O)c3cccc(Nc4ccc(-c5ccccc5)nn4)c3)ccc2F)CC1 [Compound 227, N-(4-fluoro-3-(4-methylpiperazin-1-yl)benzyl)-3-((6-phenylpyridazin-3-yl)amino)benzamide]
- inhibition at 0.1 µM: < 30%
- inhibition at 1 µM: 30 to 60%

SMILES: O=C(NC1(CO)CC1)c1cccc(Nc2ccc(-c3ccccc3)nn2)c1 [Compound 228, N-(1-(hydroxymethyl)cyclopropyl)-3-((6-phenylpyridazin-3-yl)amino)benzamide]
- inhibition at 0.1 µM: < 30%
- inhibition at 1 µM: < 30%
